System: M. tuberculosis H37Rv growth inhibition
Experiment: M. tuberculosis H37Rv growth inhibitors, H37Rv strain (AID 1626)
Conditions: for IC90: measured here: IC90 against H37Rv; for CC50: measured here: Vero cell cytotoxicity

Row | SMILES | IC50 | IC90 | CC50
1 | O=c1nc(/C=C/c2ccc(-c3ccc(F)cc3)o2)cc(C(F)(F)F)[nH]1 | 10.4 µM | > 100 µM | > 40 µM
2 | CCOC(=O)COc1ccc(S(=O)(=O)NCCC2=CCCCC2)cc1 | 12.1 µM | 20.8 µM | –
3 | O/N=C/c1ccc2ccccc2c1 | – | > 100 µM | –
4 | O=C(c1ccc2c3c(cccc13)CC2)C1CCCN(Cc2ccccn2)C1 (stereo unspecified) | 10 µM | > 100 µM | > 40 µM
5 | CCCCOC(=O)c1ccc(NC(=O)C2CCCO2)cc1 (stereo unspecified) | 14.2 µM | > 100 µM | –
6 | S=c1[nH]cnc2sc(-c3ccccc3)cc12 | 8.3 µM | > 100 µM | –
7 | Cc1ccc(-c2nnc(SCC#CCOC(=O)c3ccco3)o2)cc1 | < 0.391 µM | 3.43 µM | –
8 | Cc1ccc(Oc2nc(-c3ccccn3)nc3ccccc23)cc1 | 2.56 µM | 10.5 µM | 22.4 µM
9 | CCOc1ccc(NC(=O)CCCc2cc(-c3ccc(OCC)cc3)on2)cc1 | 47.1 µM | > 100 µM | –
10 | CCN1CCN(Cc2ccc(NC(=O)c3ccc(C)c(NC(=O)C(=O)c4c[nH]c5ccccc45)c3)cc2C(F)(F)F)CC1 | 4.32 µM | 5.57 µM | 6.73 µM
11 | CC(=O)c1ccccc1OCC(O)CN1CCN(C(c2ccccc2)c2ccccc2)CC1 (stereo unspecified) | 7.75 µM | 32.6 µM | 33.1 µM
12 | CC(=O)Oc1ccc2oc3c(c2c1)C(=O)CCC3 | 12 µM | > 100 µM | –
13 | Nc1nc(Nc2cccc(Cl)c2)nc(NCc2ccco2)c1[N+](=O)[O-] | 29.9 µM | > 100 µM | > 40 µM
14 | O=C(c1cc2nc(-c3ccccc3)cc(-c3ccccc3)n2n1)N1CCN(C(=O)c2ccco2)CC1 | 5.92 µM | 17.6 µM | > 40 µM
15 | Cc1cc(NC(=O)CSc2nnc(-c3ccccc3)o2)no1 | 5.7 µM | 10.1 µM | > 40 µM
16 | O=C(Nc1nnc(-c2ccc(Cl)cc2)o1)C1=COCCO1 | 6.4 µM | 11.4 µM | > 40 µM
17 | Cc1ccc(N/C(N)=N/c2nc(C)cc(N3CCCCC3)n2)c(C)c1 | 2.17 µM | 3.68 µM | 9.19 µM
18 | c1ccc(C2[C@H]3CN(CC4CCCCC4)[C@H](c4ccccc4)C34CC2(c2cccnc2)C4)cc1 (stereo partly specified) | 15 µM | 23.4 µM | –
19 | Cc1ccc(-c2c[n+](CC(=O)N3c4ccccc4Sc4ccccc43)c3n2CCC3)cc1 | 7.87 µM | 20.6 µM | –
20 | Cc1ccc(Nc2ccccc2N)cc1 | 1.46 µM | 1.66 µM | –
21 | N#CCC1c2ccccc2CCN1C(=O)Nc1ccc(C(F)(F)F)cc1 (stereo unspecified) | 5.9 µM | > 100 µM | –

Row | SMILES | IC50 | IC90 | CC50
22 | CCOC(=O)c1ccc(NCc2ccc(N(C)C)cc2)cc1 | – | > 100 µM | –
23 | COC(=O)CN1C(c2cccc(Cl)c2)=Nc2ccc(Cl)cc2C1c1ccccc1 (stereo unspecified) | 11.9 µM | 13.6 µM | –
24 | CC(=O)Nc1sc2c(c1CN1CCN(c3ccc(F)cc3)CC1)CCCC2 | 13.2 µM | > 100 µM | > 40 µM
25 | CCOC(=O)c1ccc(N/C=C/C(=O)c2ccc(OC)c(OC)c2)cc1 | 3.44 µM | > 100 µM | –
26 | O=C(Nc1ncc(Cc2ccccc2Cl)s1)C1=NCCN1 | 3.75 µM | 10.3 µM | > 40 µM
27 | N#CCc1ccc(NC(=O)/C=C/c2ccc([N+](=O)[O-])o2)cc1 | < 0.391 µM | < 0.391 µM | 0.277 µM
28 | COc1ccc(NS(=O)(=O)c2cc(NC(=O)[C@@H](NC(=O)c3ccccc3)C(C)C)ccc2C)cc1 | – | – | 23.3 µM
29 | COc1ccc(CCNc2nc(N3CCCCC3)nc(N3CCCCC3)n2)cc1OC | 12.4 µM | 18.8 µM | > 40 µM
30 | CCN(CC)CCOC(=O)c1ccc(N/C=C(/C#N)c2nc(-c3cccc(OC)c3)cs2)cc1 | 4.42 µM | 20.2 µM | 10.8 µM
31 | c1ccc(CCCN2CCN(CCOC(c3ccccc3)c3ccccc3)CC2)cc1 | 5.22 µM | 5.82 µM | > 40 µM
32 | CCOC(=O)c1ccc(NC(=O)NS(=O)(=O)c2ccc(C)cc2)cc1 | 7.99 µM | > 100 µM | –
33 | CCCCCCc1ccc(OCC(=O)OC)cc1OCC(=O)OC | 1.82 µM | 20.1 µM | –
34 | O=C(OCc1nc2ccccc2s1)c1ccc(Br)o1 | 12.7 µM | > 100 µM | –
35 | Cc1ccccc1-n1nnc2c(=O)oc3ccccc3c21 | 4.48 µM | > 100 µM | –
36 | COc1ccc(C(C[N+](=O)[O-])n2nc(C)cc2C)cc1 (stereo unspecified) | – | – | > 40 µM
37 | Cn1c(O)c(C(=Nc2ccccc2)SCc2ccc(Cl)cc2)c(=O)n(C)c1=O | 5.61 µM | 6.41 µM | 21.2 µM
38 | CCC(C)c1ccc(NC(=O)COC(=O)C2=COCCO2)cc1 (stereo unspecified) | 4.54 µM | > 100 µM | –
39 | COc1cc(OC)c(-c2nn3c(C4CCCCC4)nnc3s2)cc1OC | 2.2 µM | 6.47 µM | –
40 | OC(CN1CCN(c2ccccn2)CC1)Cn1c2ccc(Cl)cc2c2cc(Cl)ccc21 (stereo unspecified) | 2.31 µM | 3.12 µM | 21.5 µM
41 | CCOc1ccc(NC(=O)CCSc2ccc3ccccc3n2)cc1 | 6.54 µM | > 100 µM | –
42 | Nc1ccc(OCc2ccco2)cc1 | 5.19 µM | > 100 µM | –

Row | SMILES | IC50 | IC90 | CC50
43 | O=C(Nc1ccc(OC(F)(F)F)cc1)N1CCN(c2ccnc3cc(Cl)ccc23)CC1 | 3.08 µM | 3.51 µM | 8.59 µM
44 | COC(=O)CSc1nc(-c2ccccc2)c2c(c1C#N)CCCC2 | 5.24 µM | 8.33 µM | –
45 | CC(C)[C@H](CO)N(Cc1cccc(F)c1)c1nc(Nc2cccc(Cl)c2)c2ncn(C(C)C)c2n1 | 7.31 µM | 14.1 µM | > 40 µM
46 | COc1ccc2c(c1)CCc1cnc(N)nc1-2 | 69.9 µM | > 100 µM | > 40 µM
47 | Cc1cccc(OCCCCc2c(C)n[nH]c2C)c1C | 2.75 µM | 3.87 µM | 30.2 µM
48 | O=C(c1cc2nc(-c3ccc(F)cc3)cc(C(F)(F)F)n2n1)N1CCCCC1c1cccnc1 (stereo unspecified) | 9.18 µM | 14 µM | > 40 µM
49 | O=C(CSc1ccc([N+](=O)[O-])cn1)Nc1ccc2c(c1)OCCO2 | 51.3 µM | > 100 µM | –
50 | Cn1nc(-c2ccc(Cl)cc2)c2cc(C(=O)N3CCN(c4ccccn4)CC3)sc21 | 2.49 µM | 4.36 µM | > 40 µM
51 | CCN1CCN(Cc2ccc(NC(=O)c3ccc(C)c(NC(=O)c4cc(-c5ccc(Br)cc5)n[nH]4)c3)cc2C(F)(F)F)CC1 | 2.16 µM | 2.85 µM | 13 µM
52 | CN(C)c1ccc(NC(=O)Cn2cc3c(n2)CCCC3)cc1 | 13 µM | 18.6 µM | –
53 | C=CCn1c(O)c(C(C)=Nc2ccc(C(=O)OCC)cc2)c(=O)[nH]c1=O | 14 µM | > 100 µM | –
54 | CCCCCc1cc(=O)oc2c(C(CCN3CCCC(C)C3)c3ccc(N(C)C)cc3)c(OC)cc(OC)c12 (stereo unspecified) | 5.6 µM | 6.31 µM | 16.5 µM
55 | COc1ccc(N=CC2=C(O)CCCC2=O)cc1 | 45 µM | > 100 µM | –
56 | O=C(Nc1ccn(Cc2ccccc2F)n1)c1ccc(COc2ccc(Cl)cc2Cl)o1 | 33.9 µM | > 100 µM | > 40 µM
57 | Cn1nnnc1SCC(=O)Nc1nc(-c2ccccc2)c(-c2ccccc2)o1 | 35.6 µM | > 100 µM | > 40 µM
58 | CN(C(=O)c1ccco1)c1nc2c(s1)CCCC2 | – | – | > 40 µM
59 | O=C(Nc1ccc(N2CCOCC2)c(Cl)c1)c1ccc([N+](=O)[O-])o1 | 7.54 µM | 11.3 µM | 3.3 µM
60 | COc1ccccc1OC(=O)CCN1c2ccccc2Sc2ccccc21 | 11.8 µM | 17.5 µM | –
61 | O=C1C=C(Nc2ccccc2)C(=O)c2ccccc21 | 11.7 µM | 13.4 µM | > 40 µM
62 | CCOc1ccc(N=Cc2c(O)n(-c3ccc(C)c(C)c3)c(=O)[nH]c2=O)cc1 | < 0.195 µM | > 100 µM | –
63 | CCOc1ccc(N/C(C)=C\C(=O)c2ccc3c(c2)OCCO3)cc1 | 5.85 µM | > 100 µM | –

Row | SMILES | IC50 | IC90 | CC50
64 | Cn1nc(C(F)(F)F)c2cc(NC(=O)OCC(C)(C)C)sc21 | 13.3 µM | > 100 µM | –
65 | CCN1CCN(c2cc(-c3ccccc3)nc3cc(-c4cccc(F)c4)nn23)CC1 | 8.07 µM | 12.9 µM | 39.2 µM
66 | O=C(/C=C/c1ccco1)c1ccc(NC(=O)C23CC4CC(CC(C4)C2)C3)cc1 | < 0.195 µM | > 100 µM | –
67 | CCOC(=O)N1CCN(C(=O)CSc2nnc(COc3ccccc3)o2)CC1 | 24.7 µM | 40 µM | –
68 | C=CCOc1ccc(CN(C)Cc2nc3cc(C(F)(F)F)ccc3c(=O)[nH]2)cc1 | 12.4 µM | > 100 µM | –
69 | CCCc1cc(-c2nc(-c3ccc(C)cc3)cs2)ccn1 | 7.61 µM | 22.2 µM | > 40 µM
70 | O=c1[nH][nH]cc1C=Nc1ccc(Oc2ccccc2)cc1 | 15.4 µM | > 100 µM | –
71 | COc1cc(CNC23CC4CC(CC(C4)C2)C3)ccc1OCc1ccccc1 | 2.94 µM | 3.35 µM | > 40 µM
72 | O=C(CCCSc1nnc(SCCCC(=O)c2ccc(F)cc2)s1)c1ccc(F)cc1 | 0.516 µM | 0.654 µM | 26.4 µM
73 | Cc1ccc(NC(=O)c2sc3nc(C)nc(N4CCN(c5ccccn5)CC4)c3c2C)c(C)c1 | 10.7 µM | > 100 µM | –
74 | CCOC(=O)COc1ccc(/C=C2/SC(=Nc3ccccc3)N(Cc3cccnc3)C2=O)cc1OC | 10.4 µM | > 100 µM | > 40 µM
75 | COc1ccc(NC(=O)CN(C)CC(=O)Nc2ccc3c(c2)CCC3)cc1 | 20.6 µM | > 100 µM | –
76 | O=C(c1ccc(COc2ccc(Cl)cc2)o1)N1CCN(Cc2ccc3c(c2)OCO3)CC1 | 10.8 µM | 21.9 µM | > 40 µM
77 | Cn1cnc(Sc2ncnc3nc[nH]c23)c1[N+](=O)[O-] | 8.98 µM | 16.1 µM | –
78 | Cc1cc(Nc2ccccc2)n(-c2nc3ccccc3[nH]2)n1 | < 0.195 µM | 3.18 µM | > 40 µM
79 | Cc1cccc(N2CCN(C(=O)/C=C/c3cccs3)CC2C)c1 (stereo unspecified) | 23.4 µM | 26.5 µM | –
80 | CC(=O)c1c(C)n(C)c2ccc(O)cc12 | – | > 100 µM | –
81 | O=C(NCc1ccco1)c1cc2n(n1)C(C(F)(F)F)CC(c1ccc(Cl)c(Cl)c1)N2 (stereo unspecified) | – | > 100 µM | > 40 µM
82 | CC(C)Nc1ccc(Nc2ccnc3cc4ccccc4cc23)cc1 | 5.31 µM | 9.7 µM | 3.3 µM

Reference: PubChem BioAssay AID1626 (SRMLSC, 2009)
